Measurements from US20260285810A1, “CRYSTAL FORM OF MUSCARINE ANTAGONIST, METHOD FOR PREPARING SAME, AND USE THEREOF” (SICHUAN KELUN PHARMACEUTICAL RESEARCH INSTITUTE CO., LTD., priority 2023, published 2026).

Tests used:
Assay type in all cases: physicochemical
[1] = Hygroscopic weight gain on storage at 80% humidity for 24 hours; conditions: stored under a humidity condition of 80%+2% for 24 hours
[2] = Dynamic vapor sorption (DVS) evaluation; conditions: DVS 25° C.
Method: The DVS pattern of the crystal form is tested using a DVS Intrinsic (SMS) at a test temperature of 25° C. and detected in cycle-DMDT mode.
Dynamic vapor sorption curve (also referred to as adsorption-desorption characteristic curve) was evaluated using a DVS Intrinsic (SMS). Approximately 30 mg of the sample prepared in Example 1 was subjected to a three-stage programmed scanning method at room temperature (25° C.) as follows: the first-stage hygroscopicity program involving a stepwise increase in relative humidity from 60% RH to 90% RH, with a relative humidity change rate of 10% RH/step; the second-stage hygroscopicity program involving a stepwise decrease in relative humidity from 90% RH to 0% RH, with a relative humidity change rate of 10% RH/step; and the third-stage hygroscopicity program involving a stepwise increase in relative humidity from 0% RH to 90% RH, with a relative humidity change rate of 10% RH/step. The mass change rate mode (dm/dt mode) was used, where when the mass change rate (dm/dt) was ≤0.005%, the instrument program controlled the switching of the relative humidity (RH) to the next stage and maintained constant humidity (+/−10% RH).

[3] = Temperature- and humidity-mediated crystal transformation (XRPD, HPLC purity, KF water content)
Method: (§1) The XRPD pattern of the crystal form is collected using an X'Pert3 Powder diffractometer, which uses Cu […] irradiation and performs detection using Absolute scan at room temperature. The detection range is from 3.5° to 40°, with a step size of 0.013°, a dwell time of 50 s, and one scan.
Samples 1 and 2 were tested for XRPD, HPLC purity, and KF water content.

[4] = Drying of wet crystal product with Karl Fischer water content and XRPD testing; conditions: drying at 30° C.-35° C., vacuum
Method: as §1
The wet crystal product of Example 1 was dried under conditions of a temperature of 30° C.-35° C. and a vacuum degree of −0.08 Mpa. During the drying, the samples were collected for Karl Fischer water content testing and XRPD.

[5] = Accelerated and long-term storage, crystal form by XRPD
Method: The packaged samples were stored under conditions of 30° C./35% RH and 40° C./75% RH, and collected and investigated for crystal forms at day 0, 3 months, and 6 months, respectively.

[6] = Bulk density and tap density (powder density tester); conditions: Example 1 batch
Method: The top surface is carefully leveled, and the apparent volume is recorded. The cylinder is then placed on the powder density tester and shaken at a frequency of 1250. The taped volume is recorded, and then the tap density is calculated. The same batch of samples is tested three times in parallel.

[7] = Particle size distribution (Malvern Mastersizer 3000); conditions: Example 1 batch; dispersion solvent water
Method: Test method: The particle type is set as non-spherical, the particle refractive index is 1.52, the particle absorption rate is 0.001, and the rotation speed is 1800 rpm; the obscuration is 2%-15%, the sample background test time is 10 seconds, the dispersion solvent is water, the dispersant refractive index is 1.330, and the stabilization time is about 30 seconds; the number of tests is 3.

[8] = Angle of repose (powder comprehensive characteristic tester); conditions: Example 1 batch
Method: The powder falls through the funnel to form a cone, and then the angle between the inclined plane and the horizontal plane is determined. The test is repeated in triplicate.

[9] = Influencing factors stability: high temperature, high humidity, illumination, accelerated conditions (XRPD, HPLC purity); conditions: for remaining at 840 h: solid state
From the text: Samples were collected and tested for XRPD and HPLC purity at day 0, day 5, day 10, and day 35, respectively.

[10] = before/after drying (30° C., vacuum, humidity ≤20%, 24 h) and re-storage (RH 60%-80%, 25° C.-30° C., 24 h)
[11] = Illumination at 25° C. (4500 lx), day 35
[12] = day 0, Example 3 batch, packaged

- hygroscopic weight gain [1]: < 2%
- hygroscopic weight gain ([2]; humidity increased from 60% RH to 90% RH, sample of Example 1): < 0.4%
- hygroscopic weight gain ([2]; within the range of 30%-90% RH, sample of Example 1): < 2%
- crystal form of the samples collected during the DVS process ([2]; sample of Example 1): remains unchanged
- HPLC % [3, 10]: 99.79%
- KF/water content [3, 10]: 9.1%
- XRPD [3, 10]: Crystal form A
- chemical purity of the crystal form ([3]; during the temperature- and humidity-mediated mutual transformation of crystal forms): remains unchanged
- crystal form (XRPD) ([4]; KF water content=7.1%): mixed crystals
- crystal form (XRPD) ([4]; KF water content=8.3%): crystal form A
- crystal form (XRPD) ([4]; KF water content=8.9%): crystal form A
- crystal form (XRPD) ([4]; KF water content=17%): crystal form A
- crystal form ([5]; 30° C./35% RH, 6 months): Crystal form A
- crystal form ([5]; 30° C./35% RH, day 0): Crystal form A
- crystal form ([5]; 40° C./75% RH, 3 months): Crystal form A
- crystal form ([5]; 40° C./75% RH, 6 months): Crystal form A
- crystal form ([5]; 40° C./75% RH, day 0): Crystal form A
- bulk density [6]: 0.285 g/mL
- tap density [6]: 0.494 g/mL
- particle size D10 [7]: 8.40 μm
- particle size D50 [7]: 25.86 μm
- particle size D90 [7]: 53.59 μm
- powder angle of repose [8]: 45 °
- XRPD crystal form ([9]; 40° C., day 5): form A
- XRPD crystal form ([9]; 40° C., day 10): form A
- XRPD crystal form ([9]; 40° C., day 35): Crystal form A
- XRPD crystal form ([9]; 40° C./75% RH, day 5): form A
- XRPD crystal form ([9]; 40° C./75% RH, day 10): form A
- XRPD crystal form ([9]; 40° C./75% RH, day 35): Crystal form A
- XRPD crystal form ([9]; 92.5% RH (25° C.), day 5): form A
- XRPD crystal form ([9]; 92.5% RH (25° C.), day 10): form A
- XRPD crystal form ([9]; 92.5% RH (25° C.), day 35): Crystal form A
- XRPD crystal form ([9]; Illumination at 25° C. (4500 lx), day 5): form A
- XRPD crystal form ([9]; Illumination at 25° C. (4500 lx), day 10): form A
- XRPD crystal form [9, 11]: Crystal form A
- Purity (HPLC) [9, 12]: Purity: 99.87%
- XRPD crystal form [9, 12]: form A
- crystal form on exposure to stress conditions ([9]; high temperature (40° C.), high humidity (92.5% RH), illumination and accelerated (40° C./75% RH) conditions): remains unchanged
- remaining at 840 h ([9]; 40° C., day 35): 99.9%
- remaining at 840 h ([9]; 40° C./75% RH, day 35): 99.9%
- remaining at 840 h ([9]; 92.5% RH (25° C.), day 35): 99.9%
- remaining at 840 h [9, 11]: 99.9%
SMILES: CN(CCN1CCC(OC(=O)Nc2ccccc2-c2ccccc2)CC1)C(=O)c1ccc(CN2CCC(C(N)=O)CC2)cc1 [crystal form A of revefenacin]
- DVS curve characteristics ([2]; sample of Example 1, FIG. 5): reversible adsorption/desorption characteristics and low hygroscopicity
- crystal form and crystallinity ([5]; 3-month and 6-month storage under the accelerated condition (40° C./75% RH)): remains unchanged in both crystal form and crystallinity
- crystal form and crystallinity ([5]; long-term conditions (30° C./35% RH) for 6 months): remains unchanged in both crystal form and crystallinity
